Experimental findings from patent publication US9580390B2, “Indazole compounds as kinase inhibitors and method of treating cancer with same” (University Health Network, priority 2011, dated 2017) are described below.

By GI50 is commonly meant the concentration that inhibits growth by half. What is called IC50 is the concentration that inhibits the measured activity by half.

One assay has as its system Breast cancer cells. Nature of the assay: Cancer cell line growth inhibition (SRB assay). It is filed as cell-based. Conditions: Homo sapiens; MDA-MB-468; read-out: Cancer Cell Line GI50 Range MDA-MB-468. For orientation: The SRB assay estimates cell density from bound dye.
In another assay the target is T1, human TTK (Homo sapiens, UniProt P33981).
T1 construct: amino terminal GST fusion of full length human TTK; purchased Invitrogen
T1 sequence (P33981 1-857): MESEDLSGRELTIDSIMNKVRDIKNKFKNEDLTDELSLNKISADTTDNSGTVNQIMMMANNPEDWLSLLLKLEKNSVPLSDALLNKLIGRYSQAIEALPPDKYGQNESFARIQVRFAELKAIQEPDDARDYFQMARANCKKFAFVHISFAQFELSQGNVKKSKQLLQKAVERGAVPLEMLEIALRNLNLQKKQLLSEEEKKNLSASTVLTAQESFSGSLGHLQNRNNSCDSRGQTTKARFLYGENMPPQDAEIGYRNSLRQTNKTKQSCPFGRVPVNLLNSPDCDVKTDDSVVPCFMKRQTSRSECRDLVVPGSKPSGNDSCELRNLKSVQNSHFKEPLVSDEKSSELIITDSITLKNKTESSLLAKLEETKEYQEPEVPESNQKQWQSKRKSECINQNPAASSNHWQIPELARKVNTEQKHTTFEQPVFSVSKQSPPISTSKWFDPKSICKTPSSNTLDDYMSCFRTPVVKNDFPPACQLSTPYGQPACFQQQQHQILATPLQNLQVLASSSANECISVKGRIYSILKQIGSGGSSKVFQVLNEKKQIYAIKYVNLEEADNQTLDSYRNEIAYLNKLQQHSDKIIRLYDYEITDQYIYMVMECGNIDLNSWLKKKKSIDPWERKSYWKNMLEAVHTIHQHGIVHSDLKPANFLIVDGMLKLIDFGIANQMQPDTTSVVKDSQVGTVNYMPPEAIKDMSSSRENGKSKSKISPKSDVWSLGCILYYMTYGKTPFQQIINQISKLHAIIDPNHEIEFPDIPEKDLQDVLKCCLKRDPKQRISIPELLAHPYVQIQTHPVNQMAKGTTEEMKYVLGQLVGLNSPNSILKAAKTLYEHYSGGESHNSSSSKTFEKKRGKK
Nature of the assay: TTK inhibition assay (indirect ELISA). Conditions: read-out: TTK IC50 Range. It is filed as biochemical. A general note: In an ELISA, binding on a coated surface is turned into a signal by an enzyme label.

The subject of assay [1] is colon cancer cells (HCT116). Nature of the assay: Cancer cell line growth inhibition (SRB assay). It is filed as cell-based. The settings on record: Homo sapiens, HCT-116; read-out: Cancer Cell Line GI50 Range HCT116.
Assay [2] relates to ovarian cancer cells (PA-1). Nature of the assay: Cancer cell line growth inhibition (SRB assay). Conditions: Homo sapiens, PA-1; read-out: Cancer Cell Line GI50 Range PA-1. It is filed as cell-based.

Structures are written as SMILES.

For `O=C(N[C@H](c1ccccn1)C1CC1)c1cc2c(-c3ccc(N4C5CCC4CC(O)C5)cc3)n[nH]c2cc1F` (stereo partly drawn) [Example A271, N-((S)-cyclopropyl(pyridin-2-yl)methyl)-6-fluoro-3-(4-((1R,3R,5S)-3-hydroxy-8-azabicyclo[3.2.1]octan-8-yl)phenyl)-1H-indazole-5-carboxamide], the values for the GI50 (with Breast cancer cells; in assay [1]; in assay [2]) were more than 500 nM, more than 500 nM and 100 to 500 nM, respectively. Moreover, on human TTK, the half-maximal inhibitory concentration (IC50) was less than 100 nM.
As to `CCC(CC)C(NC(=O)c1ccc2[nH]nc(-c3ccc(O[C@H]4C[C@H]5CC[C@@H](C4)N5C4COC4)cc3)c2c1)c1ccccn1` (stereo partly drawn) [Example A341, N-(2-ethyl-1-(pyridin-2-yl)butyl)-3-(4-(((1R,3R,5S)-8-(oxetan-3-yl)-8-azabicyclo[3.2.1]octan-3-yl)oxy)phenyl)-1H-indazole-5-carboxamide], the GI50 (in the assay with Breast cancer cells; in assay [1]; in assay [2]) was 100 to 500 nM each time. For the same compound, the concentration for half-maximal inhibition (IC50) at human TTK is less than 100 nM.
As for `CC(C)C[C@H](NC(=O)c1ccc2[nH]nc(-c3ccc(OC4CCN(C5COC5)CC4)cc3)c2c1)c1ccccc1Cl` [Example A511, (S)-N-(1-(2-chlorophenyl)-3-methylbutyl)-3-(4-((1-(oxetan-3-yl)piperidin-4-yl)oxy)phenyl)-1H-indazole-5-carboxamide], the 50% growth inhibitory concentration (GI50) in the assay with Breast cancer cells is 100 to 500 nM; in assay [1], 100 to 500 nM; in assay [2], less than 100 nM. Also, at human TTK, the 50% inhibitory concentration (IC50) is less than 100 nM.
As for `CCC(CC)(CNC(=O)c1ccc2[nH]nc(-c3ccc(N4CCN(C)CC4)cc3)c2c1)N1CCOCC1` [Example A465, N-(2-ethyl-2-morpholinobutyl)-3-(4-(4-methylpiperazin-1-yl)phenyl)-1H-indazole-5-carboxamide], the 50% growth inhibitory concentration (GI50) was 100 to 500 nM in the assay on Breast cancer cells, 100 to 500 nM in assay [1] and less than 100 nM in assay [2]. The IC50 on human TTK is less than 100 nM.
Turning to `O=C(N[C@H](c1ccsc1)C1CC1)c1ccc2[nH]nc(-c3ccc(OC4CCN(C[C@@H](O)C(F)(F)F)CC4)cc3)c2c1` [Example A223, N-((S)-cyclopropyl(thiophen-3-yl)methyl)-3-(4-((1-((R)-3,3,3-trifluoro-2-hydroxypropyl)piperidin-4-yl)oxy)phenyl)-1H-indazole-5-carboxamide], the concentration for 50% growth inhibition (GI50) in the assay with Breast cancer cells was more than 500 nM; in assay [1] it was 100 to 500 nM; in assay [2], 100 to 500 nM. At human TTK, the concentration for half-maximal inhibition (IC50) was less than 100 nM.
As to `CC1(C)CC(=O)c2cc(-c3n[nH]c4ccc(C(=O)N[C@H](c5ccccn5)C5CC5)cc34)ccc2O1` [Example A236, (S)-N-(cyclopropyl(pyridin-2-yl)methyl)-3-(2,2-dimethyl-4-oxochroman-6-yl)-1H-indazole-5-carboxamide], the concentration for 50% growth inhibition (GI50) (with Breast cancer cells; in assay [1]; in assay [2]) was more than 500 nM throughout. Also, at human TTK, the 50% inhibitory concentration (IC50) is less than 100 nM.
Take `CS(=O)(=O)c1cc(-c2n[nH]c3ccc(C(=O)NC(c4ccccn4)C4CC4)cc23)ccc1OC1CCNCC1` (stereo not drawn) [Example A243, N-(cyclopropyl(pyridin-2-yl)methyl)-3-(3-(methylsulfonyl)-4-(piperidin-4-yloxy)phenyl)-1H-indazole-5-carboxamide]: the GI50 (in the assay on Breast cancer cells; in assay [1]; in assay [2]) was more than 500 nM each time. Besides, the IC50 at human TTK is less than 100 nM.
With `O=C(NCC1(N2CCOCC2)CCC(F)(F)CC1)c1ccc2[nH]nc(-c3ccc(N4CCOCC4)cc3)c2c1` [Example A460, N-((4,4-difluoro-1-morpholinocyclohexyl)methyl)-3-(4-morpholinophenyl)-1H-indazole-5-carboxamide], the GI50 (with Breast cancer cells; in assay [1]; in assay [2]) was more than 500 nM throughout. The 50% inhibitory concentration (IC50) on human TTK was less than 100 nM.
With `O=C(NCC1(OC2CCCC2)CCCCC1)c1ccc2[nH]nc(-c3ccc(OC4CCN(C5COC5)CC4)cc3)c2c1` [Example A434, N-((1-(cyclopentyloxy)cyclohexyl)methyl)-3-(4-((1-(oxetan-3-yl)piperidin-4-yl)oxy)phenyl)-1H-indazole-5-carboxamide], the GI50 (with Breast cancer cells; in assay [1]; in assay [2]) was more than 500 nM each time. In addition, the concentration for half-maximal inhibition (IC50) on human TTK was less than 100 nM.
Take `CC(C)C[C@H](NC(=O)c1ccc2[nH]nc(-c3ccc(N4[C@@H]5CCC[C@H]4COC5)cc3)c2c1)c1ccccc1Cl` [Example A417, 3-(4-((1R,5S)-3-oxa-9-azabicyclo[3.3.1]nonan-9-yl)phenyl)-N-((S)-(2-chlorophenyl)-3-methylbutyl)-1 H-indazole-5-carboxamide]: the GI50 (with Breast cancer cells; in assay [1]; in assay [2]) was 100 to 500 nM each time. Also, the IC50 on human TTK was less than 100 nM.
Consider `O=C(NCC1(c2ccccc2)CCOCC1)c1ccc2[nH]nc(-c3ccc(N4CC(N5CCOCC5)C4)cc3)c2c1` [Example A499, 3-(4-(3-morpholinoazetidin-1-yl)phenyl)-N-((4-phenyltetrahydro-2H-pyran-4-yl)methyl)-1H-indazole-5-carboxamide], for which the 50% growth inhibitory concentration (GI50) (in the assay on Breast cancer cells; in assay [1]; in assay [2]) was 100 to 500 nM in each case. Besides, the IC50 at human TTK was less than 100 nM.
On to `O=C(N[C@H](c1ccccn1)C1CCCC1)c1ccc2[nH]nc(-c3ccc(OC4CCN(C[C@@H](O)C(F)(F)F)CC4)cc3)c2c1` [Example A229, N((S)-cyclopentyl(pyridin-2-yl)methyl)-3-(4-((1-((R)-3,3,3-trifluoro-2-hydroxypropyl)piperidin-4-yl)oxy)phenyl)-1H-indazole-5-carboxamide], for which the GI50 (with Breast cancer cells; in assay [1]; in assay [2]) was 100 to 500 nM throughout. Moreover, the concentration for half-maximal inhibition (IC50) at human TTK was less than 100 nM.
For the compound `CC(C)C[C@H](NC(=O)c1ccc2[nH]nc(-c3ccc(N4C5CCC4COC5)cc3)c2c1)c1ccccc1Cl` [Example A413, 3-(4-((1R,5S)-3-oxa-8-azabicyclo[3.2.1]octan-8-yl)phenyl)-N-((S)-(2-chlorophenyl)-3-methylbulyl)-1H-indazole-5-carboxamide], the GI50 was 100 to 500 nM in the assay with Breast cancer cells, less than 100 nM in assay [1] and less than 100 nM in assay [2]. Further, the IC50 on human TTK is less than 100 nM.
With `O=C(NCC1(N2CCOCC2)CCOCC1)c1ccc2[nH]nc(-c3ccc(N4[C@@H]5CC[C@H]4C[C@@H](O)C5)cc3)c2c1` [Example A493, 3-(4-((1R,3R,5S)-3-hydroxy-8-azabicyclo[3.2.1]octan-8-yl)phenyl)-N-((4-morpholinotetrahydro-2H-pyran-4-yl)methyl)-1H-indazoIe-5-carboxamide], the concentration for 50% growth inhibition (GI50) in the assay with Breast cancer cells was more than 500 nM; in assay [1] it was 100 to 500 nM; in assay [2], 100 to 500 nM. For the same compound, the concentration for half-maximal inhibition (IC50) at human TTK is less than 100 nM.
Regarding `CC1=CC(C)(C)Oc2ccc(-c3n[nH]c4ccc(C(=O)N[C@H](c5ccccn5)C5CC5)cc34)cc21` [Example A237, (S)-N-(cyclopropyl(pyridin-2-yl)methyl)-3-(2,2,4-trimethyl-2H-chromen-6-yl)-1H-indazole-5-carboxamide], the GI50 (in the assay with Breast cancer cells; in assay [1]; in assay [2]) was more than 500 nM in each case. Further, the half-inhibitory concentration (IC50) at human TTK is less than 100 nM.
For the compound `O=C(NCC1(N2CCOCC2)CCCOC1)c1ccc2[nH]nc(-c3ccc(N4C5CCC4CC(O)C5)cc3)c2c1` [Example A495, 3-(4-((1R,3R.5S)-3-hydroxy-8-azabicyclo[3.2.1]octan-8-yl)phenyl)-N-((3-morpholinotetrahydro-2H-pyran-3-yl)methyl)-1H-indazole-5-carboxamide], the GI50 in the assay with Breast cancer cells was 100 to 500 nM; in assay [1], 100 to 500 nM; in assay [2] it was less than 100 nM. Moreover, on human TTK, the IC50 was less than 100 nM.
For `O=C(N[C@H](c1ccccn1)C1CCCC1)c1ccc2[nH]nc(-c3ccc(OC4CC5CCC(C4)N5C4COC4)cc3)c2c1` (stereo partly drawn) [Example A347, N-((S)-cyclopentyl(pyridin-2-yl)methyl)-3-(4-(((1R,3R,5S)-8-(oxetan-3-yl)-8-azabicyclo[3.2.1]octan-3-yl)oxy)phenyl)-1H-indazole-5-carboxamide], the 50% growth inhibitory concentration (GI50) in the assay with Breast cancer cells was 100 to 500 nM; in assay [1], less than 100 nM; in assay [2], 100 to 500 nM. The concentration for half-maximal inhibition (IC50) at human TTK is less than 100 nM.
With `O=C(N[C@@H](c1ccsc1)C1CC1)c1ccc2[nH]nc(-c3ccc(OC4CCN(C[C@@H](O)C(F)(F)F)CC4)cc3)c2c1` [Example A224, N-((R)-cyclopropyl(thiophen-3-yl)methyl)-3-(4-((1-((R)-3,3,3-trifluoro-2-hydroxypropyl)piperidin-4-yl)oxy)phenyl)-1H-indazole-5-carboxamide], the 50% growth inhibitory concentration (GI50) in the assay on Breast cancer cells is more than 500 nM; in assay [1], 100 to 500 nM; in assay [2], 100 to 500 nM. The concentration for half-maximal inhibition (IC50) on human TTK was less than 100 nM.
